{
  "source": "ChEMBL document CHEMBL1201862",
  "about": "“PubChem BioAssay data set” (2004)",
  "assay_in_all_cases": "NCI tumour cell line growth inhibition, 48 h",
  "key": {"CCRF-CEM": {"test_system": "CCRF-CEM"}, "MDA-N": {"test_system": "MDA-N"}, "SK-MEL-28": {"test_system": "SK-MEL-28"}, "A549": {"test_system": "A549"}, "Hs-578T": {"test_system": "Hs-578T"}, "KM12": {"test_system": "KM12"}, "COLO 205": {"test_system": "COLO 205"}, "SN12C": {"test_system": "SN12C"}, "MDA-MB-435": {"test_system": "MDA-MB-435"}, "T47D": {"test_system": "T47D"}, "SW-620": {"test_system": "SW-620"}, "SF-295": {"test_system": "SF-295"}, "SF-539": {"test_system": "SF-539"}, "HCT-116": {"test_system": "HCT-116"}, "UO-31": {"test_system": "UO-31"}, "OVCAR-3": {"test_system": "OVCAR-3"}, "EKVX": {"test_system": "EKVX"}, "SK-MEL-2": {"test_system": "SK-MEL-2"}, "UACC-62": {"test_system": "UACC-62"}, "K562": {"test_system": "K562"}, "HCT-15": {"test_system": "HCT-15"}, "U-251": {"test_system": "U-251"}, "HL-60": {"test_system": "HL-60"}, "HCC 2998": {"test_system": "HCC 2998"}, "HOP-62": {"test_system": "HOP-62"}, "ACHN": {"test_system": "ACHN"}, "HOP-92": {"test_system": "HOP-92"}, "SR": {"test_system": "SR"}, "TK-10": {"test_system": "TK-10"}, "Malme-3M": {"test_system": "Malme-3M"}, "SK-MEL-5": {"test_system": "SK-MEL-5"}, "RPMI-8226": {"test_system": "RPMI-8226"}, "SNB-75": {"test_system": "SNB-75"}, "PC-3": {"test_system": "PC-3"}, "CAKI-1": {"test_system": "CAKI-1"}, "HT-29": {"test_system": "HT-29"}, "DU-145": {"test_system": "DU-145"}, "SF-268": {"test_system": "SF-268"}, "NCI-H460": {"test_system": "NCI-H460"}, "NCI-H23": {"test_system": "NCI-H23"}, "LOX IMVI": {"test_system": "LOX IMVI"}, "NCI-H226": {"test_system": "NCI-H226"}, "MDA-MB-231": {"test_system": "MDA-MB-231"}, "MOLT-4": {"test_system": "MOLT-4"}, "OVCAR-8": {"test_system": "OVCAR-8"}, "M14": {"test_system": "M14"}, "OVCAR-5": {"test_system": "OVCAR-5"}, "MCF7": {"test_system": "MCF7"}, "SK-OV-3": {"test_system": "SK-OV-3"}, "RXF 393": {"test_system": "RXF 393"}, "BT-549": {"test_system": "BT-549"}, "IGROV-1": {"test_system": "IGROV-1"}, "A498": {"test_system": "A498"}, "NCI-H522": {"test_system": "NCI-H522"}, "786-0": {"test_system": "786-0"}, "SNB-19": {"test_system": "SNB-19"}, "UACC-257": {"test_system": "UACC-257"}},
  "note": "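Where inhibition never reached the appropriate level, the endpoint shown equals the highest concentration tested. Otherwise, values were interpolated linearly from a five-concentration, 48-hour dose response in 96-well plates. GI50 = concentration required for 50% inhibition of growth.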 Active and inactive are the calls of the source. Rule as the data show it: active = GI50 up to about 1.1 µM and inactive = higher.",
  "data": [
    {"smiles": "Oc1ccccc1C(c1cc2c(cc1O)OCO2)N1CCOCC1", "note": "(configuration not stated)", "values": [
      {"measurement": "GI50", "setting": "CCRF-CEM", "value": "2.14 µM (inactive)"},
      {"measurement": "GI50", "setting": "MDA-N", "value": "18.7 µM (inactive)"},
      {"measurement": "GI50", "setting": "SK-MEL-28", "value": "20.7 µM (inactive)"},
      {"measurement": "GI50", "setting": "A549", "value": "23 µM (inactive)"},
      {"measurement": "GI50", "setting": "Hs-578T", "value": "19.5 µM (inactive)"},
      {"measurement": "GI50", "setting": "KM12", "value": "19.8 µM (inactive)"},
      {"measurement": "GI50", "setting": "COLO 205", "value": "18.7 µM (inactive)"},
      {"measurement": "GI50", "setting": "SN12C", "value": "19.1 µM (inactive)"},
      {"measurement": "GI50", "setting": "MDA-MB-435", "value": "18.2 µM (inactive)"},
      {"measurement": "GI50", "setting": "T47D", "value": "16.7 µM (inactive)"},
      {"measurement": "GI50", "setting": "SW-620", "value": "23 µM (inactive)"},
      {"measurement": "GI50", "setting": "SF-295", "value": "20.6 µM (inactive)"},
      {"measurement": "GI50", "setting": "SF-539", "value": "20.7 µM (inactive)"},
      {"measurement": "GI50", "setting": "HCT-116", "value": "17.7 µM (inactive)"},
      {"measurement": "GI50", "setting": "UO-31", "value": "15.8 µM (inactive)"},
      {"measurement": "GI50", "setting": "OVCAR-3", "value": "17.5 µM (inactive)"},
      {"measurement": "GI50", "setting": "EKVX", "value": "50.9 µM (inactive)"},
      {"measurement": "GI50", "setting": "SK-MEL-2", "value": "17.8 µM (inactive)"},
      {"measurement": "GI50", "setting": "UACC-62", "value": "17 µM (inactive)"},
      {"measurement": "GI50", "setting": "K562", "value": "5.25 µM (inactive)"},
      {"measurement": "GI50", "setting": "HCT-15", "value": 16.4, "unit": "µM"},
      {"measurement": "GI50", "setting": "U-251", "value": "16.6 µM (inactive)"},
      {"measurement": "GI50", "setting": "HL-60", "value": "2.24 µM (inactive)"},
      {"measurement": "GI50", "setting": "HCC 2998", "value": "18.7 µM (inactive)"},
      {"measurement": "GI50", "setting": "HOP-62", "value": "38.8 µM (inactive)"},
      {"measurement": "GI50", "setting": "ACHN", "value": "17.5 µM (inactive)"},
      {"measurement": "GI50", "setting": "HOP-92", "value": "17.3 µM (inactive)"},
      {"measurement": "GI50", "setting": "SR", "value": "8.07 µM (inactive)"},
      {"measurement": "GI50", "setting": "TK-10", "value": "> 10 µM (inactive)"},
      {"measurement": "GI50", "setting": "Malme-3M", "value": "17.8 µM (inactive)"},
      {"measurement": "GI50", "setting": "SK-MEL-5", "value": "17.3 µM (inactive)"},
      {"measurement": "GI50", "setting": "RPMI-8226", "value": "12.8 µM (inactive)"},
      {"measurement": "GI50", "setting": "SNB-75", "value": "16.4 µM (inactive)"},
      {"measurement": "GI50", "setting": "PC-3", "value": "16.3 µM (inactive)"},
      {"measurement": "GI50", "setting": "CAKI-1", "value": "19.7 µM (inactive)"},
      {"measurement": "GI50", "setting": "HT-29", "value": "18.5 µM (inactive)"},
      {"measurement": "GI50", "setting": "DU-145", "value": "37.4 µM (inactive)"},
      {"measurement": "GI50", "setting": "SF-268", "value": "18.5 µM (inactive)"},
      {"measurement": "GI50", "setting": "NCI-H460", "value": "27.4 µM (inactive)"},
      {"measurement": "GI50", "setting": "NCI-H23", "value": "23.6 µM (inactive)"},
      {"measurement": "GI50", "setting": "LOX IMVI", "value": "17.1 µM (inactive)"},
      {"measurement": "GI50", "setting": "NCI-H226", "value": "35.6 µM (inactive)"},
      {"measurement": "GI50", "setting": "MDA-MB-231", "value": "21 µM (inactive)"},
      {"measurement": "GI50", "setting": "MOLT-4", "value": "8.24 µM (inactive)"},
      {"measurement": "GI50", "setting": "OVCAR-8", "value": "9.29 µM (inactive)"},
      {"measurement": "GI50", "setting": "M14", "value": "17.9 µM (inactive)"},
      {"measurement": "GI50", "setting": "OVCAR-5", "value": "25 µM (inactive)"},
      {"measurement": "GI50", "setting": "MCF7", "value": "19.4 µM (inactive)"},
      {"measurement": "GI50", "setting": "SK-OV-3", "value": "19.8 µM (inactive)"},
      {"measurement": "GI50", "setting": "RXF 393", "value": "14.3 µM (inactive)"},
      {"measurement": "GI50", "setting": "BT-549", "value": "16.6 µM (inactive)"},
      {"measurement": "GI50", "setting": "IGROV-1", "value": "19.4 µM (inactive)"},
      {"measurement": "GI50", "setting": "A498", "value": "22.9 µM (inactive)"},
      {"measurement": "GI50", "setting": "NCI-H522", "value": "10.2 µM (inactive)"},
      {"measurement": "GI50", "setting": "786-0", "value": "4.89 µM (inactive)"},
      {"measurement": "GI50", "setting": "SNB-19", "value": "19.1 µM (inactive)"},
      {"measurement": "GI50", "setting": "UACC-257", "value": "19.2 µM (inactive)"}
    ]}
  ]
}
